PubChem BioAssay (NCI)
Where “and” joins values, the source holds several entries; their conditions need not be identical. Equal entries are not always repeated.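 Cultured in 96-well plates, cells were exposed to test compound for 48 hours across five concentrations. The concentration for 50% growth inhibition is given as GI50. TGI: total growth inhibition.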

Columns and labels:
Assay in all cases: NCI tumour cell line growth inhibition, 48 h
[1] = test system: XF 498 CNS
[2] = test system: HOP-18 NSCLC
[3] = test system: KM20L2 colon
[4] = test system: RXF-631 renal
[5] = test system: DLD-1 colon
[6] = test system: DMS 114 small cell lung
[7] = test system: DMS 273 small cell lung
[8] = test system: SNB-78 CNS
[9] = test system: MDA-N
[10] = test system: P388/ADR leukemia
[11] = test system: SN12K1 renal
[12] = test system: P388 leukemia

Structure (SMILES)	TGI [1]	TGI [2]	TGI [3] [µM]	TGI [4] [µM]	TGI [5] [µM]	TGI [6] [µM]	TGI [7]	TGI [8] [µM]	also measured
O=[N+]([O-])c1ccc2nc3ccscc-3c2c1	87.2 µM	> 100 µM	94.9	> 100	> 100	39.6	> 100 µM	90	
COc1ccc(C2N3CCCCC3[C@@H]3c4[nH]c5ccccc5c4CCN23)c(OC)c1 (stereo partly drawn)	28.2 µM	> 100 µM	41.9		> 100	38.4	34.3 µM	49	
Cc1cccc2cc3cccc(C(=O)NCCN(C)C)c3nc12		9.35 µM	5.11	27.7	5.11	1.02	0.926 µM	11.4	
CC1=C/C(O)CC(=O)Cc2nc(co2)C(=O)N2CCC=C2C(=O)OC(C(C)C)C(C)/C=C\C(=O)NC/C=C\1 (stereo not drawn)									TGI [9]: 67.9 µM
Cc1nnc2n1N=C(c1ccc(-c3ccc([N+](=O)[O-])cc3)o1)CS2			> 100		> 100		> 100 µM	> 100	
C=C[Si](C)(C)COC(=O)/C(C#N)=C/C=C/c1ccccc1		> 100 µM	> 100		> 100	> 100	> 100 µM	> 100	
CN(C)CCC(=O)N1CCc2c([nH]c3ccccc23)C1c1cccnc1 (stereo not drawn)	> 100 µM	> 100 µM	> 100	> 100	> 100	> 100	> 100 µM	> 100	
NCCn1cnc2nc(NC(=O)c3ccccc3)[nH]c(=O)c21		> 100 µM	> 100	> 100	> 100	> 100		> 100	
COc1cccc2c1C(=O)c1c(O)c3c(c(O)c1C2=O)C[C@@](O)(C(C)=O)C[C@@H]3OC1CC(O)C(O)C(C)O1 (stereo partly drawn)		7.13 µM and 7.74 µM			15.9		7.84 µM and 3.46 µM	59.1	TGI [10]: 1.64 µM; GI50 [11]: 0.333 µM; TGI [11]: 4.96 µM; GI50 [12]: 0.013 µM; TGI [12]: 0.372 µM; TGI [9]: 21.4 µM
Clc1ccc(N/N=C(\c2ccccc2)c2ccccn2)nc1									TGI [9]: 26.5 µM
C[CH2][Ge]([CH2]C)([CH2]C)[O]C(=O)C([O][Ge]([CH2]C)([CH2]C)[CH2]C)c1ccccc1 (stereo not drawn)		59 µM	42.8		> 100	31.6			GI50 [2]: 26.7 µM; GI50 [3]: 17 µM; GI50 [5]: 20.3 µM; GI50 [6]: 5.84 µM
O=C(Nc1ccccc1[N+](=O)[O-])C(=O)C(C(=O)c1ccccc1-c1ccccc1)C1OC(=O)c2ccccc21 (stereo not drawn)		31.6 µM	34.9	35.3	44.8	31.7	38.5 µM	> 100	
COC1C(O)CC(OC2CC(OC3CC(O[C@@H]4C(=O)c5c(cc6cc(OC7CC(OC8CC(O)C(O)C(C)O8)C(O)C(C)O7)c(C)c(O)c6c5O)C[C@H]4[C@H](OC)C(=O)[C@@H](O)[C@@H](C)O)OC(C)C3O)OC(C)C2O)OC1C (stereo partly drawn)	0.191 µM	36 µM	0.533		> 100	4.5	1.67 µM	> 100	
C/C(=C1/N=C(c2ccccc2)OC1=O)c1ccccc1									TGI [9]: > 100 µM
Oc1c(Cl)cc(CN(Cc2cc(Cl)c(O)c(Cl)c2)C2CCCCC2)cc1Cl									TGI [9]: > 100 µM
COc1cc(/C=C2\NC(=S)C3Cc4c(OC)c(C)c(OC)c(OC)c4C2N3C)c(OC)c(C)c1OC (stereo not drawn)		> 100 µM	> 100		> 100	92.1	> 100 µM		
CC(=O)OCC1OC(n2c(=S)n(-c3ccccc3)c(=O)c3cc(Br)ccc32)C(OC(C)=O)C(OC(C)=O)C1OC(C)=O (stereo not drawn)	61.2 µM and > 100 µM		> 100	> 100	> 100	> 100	> 100 µM	> 100	GI50 [1]: 23.6 µM and > 100 µM; GI50 [8]: 41.5 µM and > 10 µM
Cc1cc(Cl)ccc1N1C(=O)C(=O)C(c2nc3ccccc3o2)C(=O)C1=O	> 100 µM	> 100 µM	> 100		> 100	> 100	> 100 µM	> 100	
